Results published in ChEMBL document CHEMBL2074380, “Pyronaridine, a novel modulator of P-glycoprotein-mediated multidrug resistance in tumor cells in vitro and in vivo” (Biochem Biophys Res Commun, 2004).

How the values were obtained:
Assay type in all cases: functional, cell-based
[1] = molecular target: T1, ATP-dependent translocase ABCB1 (Homo sapiens, UniProt P08183); assay: TP_TRANSPORTER: drug resistance (doxorubicin) in MCF-7/ADR cells; details: nci/adr-res
[2] = molecular target: T1, ATP-dependent translocase ABCB1; assay: TP_TRANSPORTER: drug resistance (doxorubicin) in K562/A02 cells
[3] = molecular target: T1, ATP-dependent translocase ABCB1; assay: TP_TRANSPORTER: increase in Rhodamine 123 intracellular accumulation in K562/A02 cells

Measured: Activity

T1 sequence (P08183 whole entry): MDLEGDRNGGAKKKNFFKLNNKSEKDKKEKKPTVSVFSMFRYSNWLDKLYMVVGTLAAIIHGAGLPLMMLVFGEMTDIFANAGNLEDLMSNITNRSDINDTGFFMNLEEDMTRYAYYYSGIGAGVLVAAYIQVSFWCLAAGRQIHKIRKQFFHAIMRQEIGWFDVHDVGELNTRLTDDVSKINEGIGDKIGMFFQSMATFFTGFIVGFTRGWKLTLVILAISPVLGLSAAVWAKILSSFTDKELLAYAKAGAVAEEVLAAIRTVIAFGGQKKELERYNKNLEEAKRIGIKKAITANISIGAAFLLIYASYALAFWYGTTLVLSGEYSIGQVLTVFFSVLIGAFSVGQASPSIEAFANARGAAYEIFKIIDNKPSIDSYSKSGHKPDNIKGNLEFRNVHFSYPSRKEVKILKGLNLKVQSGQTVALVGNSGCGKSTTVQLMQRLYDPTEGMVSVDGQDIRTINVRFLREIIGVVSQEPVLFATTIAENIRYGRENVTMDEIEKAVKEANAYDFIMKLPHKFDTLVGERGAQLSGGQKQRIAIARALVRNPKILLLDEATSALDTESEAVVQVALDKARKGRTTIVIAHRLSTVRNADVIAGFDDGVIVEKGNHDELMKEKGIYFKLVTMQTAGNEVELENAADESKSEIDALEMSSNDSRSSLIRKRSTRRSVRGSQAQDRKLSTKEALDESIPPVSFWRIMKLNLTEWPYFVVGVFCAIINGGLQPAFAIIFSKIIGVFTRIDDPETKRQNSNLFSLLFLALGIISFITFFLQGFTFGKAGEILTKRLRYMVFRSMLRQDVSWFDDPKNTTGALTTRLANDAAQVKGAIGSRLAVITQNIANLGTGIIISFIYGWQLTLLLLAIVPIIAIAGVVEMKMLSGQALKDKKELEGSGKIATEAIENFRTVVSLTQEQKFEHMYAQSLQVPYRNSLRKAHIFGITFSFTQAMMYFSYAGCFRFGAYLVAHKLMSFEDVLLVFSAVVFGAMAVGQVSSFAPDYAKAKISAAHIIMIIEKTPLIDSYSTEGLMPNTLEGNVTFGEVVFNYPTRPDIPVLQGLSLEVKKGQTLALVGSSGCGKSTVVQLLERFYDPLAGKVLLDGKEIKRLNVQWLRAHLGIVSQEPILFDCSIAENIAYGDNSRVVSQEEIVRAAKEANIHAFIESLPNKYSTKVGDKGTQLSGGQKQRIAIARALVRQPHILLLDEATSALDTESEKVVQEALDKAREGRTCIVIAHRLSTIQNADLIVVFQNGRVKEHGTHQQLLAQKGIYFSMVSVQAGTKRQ

COc1ccc2nc3cc(Cl)ccc3c(Nc3cc(CN4CCCC4)c(O)c(CN4CCCC4)c3)c2n1 [PYRONARIDINE]
inhibitor [+]: all assays above
